What was measured:
[1] = molecular target: MAP kinase-activated protein kinase 2 (Homo sapiens, UniProt P49137); assay: Selectivity interaction (ProQinase) EUB0000171b MAPKAPK2
[2] = molecular target: T1, Tyrosine-protein kinase JAK3 (Homo sapiens) (UniProt P52333); assay: Selectivity interaction (KinomeScan (DiscoverX)) EUB0001079a JAK3; conditions: at 1 µM
T1 sequence (whole entry): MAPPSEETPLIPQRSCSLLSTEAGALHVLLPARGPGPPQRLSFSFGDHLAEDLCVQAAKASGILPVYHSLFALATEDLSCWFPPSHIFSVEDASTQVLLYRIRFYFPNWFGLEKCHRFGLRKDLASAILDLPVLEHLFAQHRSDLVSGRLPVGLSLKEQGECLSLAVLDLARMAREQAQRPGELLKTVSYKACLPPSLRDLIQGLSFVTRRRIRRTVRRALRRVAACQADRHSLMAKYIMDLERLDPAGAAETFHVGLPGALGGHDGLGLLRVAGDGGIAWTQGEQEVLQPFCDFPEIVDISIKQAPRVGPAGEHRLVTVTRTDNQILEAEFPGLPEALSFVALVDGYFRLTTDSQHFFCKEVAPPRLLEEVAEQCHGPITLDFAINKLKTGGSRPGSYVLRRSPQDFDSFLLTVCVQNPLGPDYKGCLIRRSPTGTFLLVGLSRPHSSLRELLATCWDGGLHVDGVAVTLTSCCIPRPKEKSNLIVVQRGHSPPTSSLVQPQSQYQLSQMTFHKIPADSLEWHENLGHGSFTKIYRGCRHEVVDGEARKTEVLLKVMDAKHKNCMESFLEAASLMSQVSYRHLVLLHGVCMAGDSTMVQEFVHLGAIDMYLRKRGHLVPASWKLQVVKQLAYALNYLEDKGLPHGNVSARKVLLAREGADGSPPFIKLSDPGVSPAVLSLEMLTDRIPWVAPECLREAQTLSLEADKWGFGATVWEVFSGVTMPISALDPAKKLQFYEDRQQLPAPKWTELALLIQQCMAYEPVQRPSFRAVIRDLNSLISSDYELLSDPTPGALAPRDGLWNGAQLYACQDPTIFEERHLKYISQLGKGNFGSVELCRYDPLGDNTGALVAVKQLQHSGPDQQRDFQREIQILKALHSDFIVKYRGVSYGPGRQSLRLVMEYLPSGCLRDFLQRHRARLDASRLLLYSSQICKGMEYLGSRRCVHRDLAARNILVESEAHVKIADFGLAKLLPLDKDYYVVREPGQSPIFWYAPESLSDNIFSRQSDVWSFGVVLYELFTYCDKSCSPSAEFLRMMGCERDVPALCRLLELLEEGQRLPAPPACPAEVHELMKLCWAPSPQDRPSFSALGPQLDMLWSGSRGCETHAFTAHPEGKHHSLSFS

[3] = molecular target: Mitogen-activated protein kinase 1 (Homo sapiens, UniProt P28482); conditions: at 10 µM
Chain of Mitogen-activated protein kinase 1 (P28482 whole entry): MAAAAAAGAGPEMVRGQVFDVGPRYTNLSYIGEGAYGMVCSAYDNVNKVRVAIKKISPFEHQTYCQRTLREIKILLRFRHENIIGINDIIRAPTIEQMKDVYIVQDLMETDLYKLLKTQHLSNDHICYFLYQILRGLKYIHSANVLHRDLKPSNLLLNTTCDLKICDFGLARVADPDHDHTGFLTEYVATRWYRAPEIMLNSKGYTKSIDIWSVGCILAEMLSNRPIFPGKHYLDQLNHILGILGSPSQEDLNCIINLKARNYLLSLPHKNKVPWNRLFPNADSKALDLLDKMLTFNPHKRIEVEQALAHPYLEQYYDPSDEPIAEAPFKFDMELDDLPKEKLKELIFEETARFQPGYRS

[4] = molecular target: T2, Histone-lysine N-methyltransferase EHMT2 (Homo sapiens) (UniProt Q96KQ7); assay: Selectivity interaction (Transferase panel (protein, RNA, and DNA methyltransferases. and EP300 (acetyltransferase))) EUB0000270b EHMT2
T2 sequence (whole entry): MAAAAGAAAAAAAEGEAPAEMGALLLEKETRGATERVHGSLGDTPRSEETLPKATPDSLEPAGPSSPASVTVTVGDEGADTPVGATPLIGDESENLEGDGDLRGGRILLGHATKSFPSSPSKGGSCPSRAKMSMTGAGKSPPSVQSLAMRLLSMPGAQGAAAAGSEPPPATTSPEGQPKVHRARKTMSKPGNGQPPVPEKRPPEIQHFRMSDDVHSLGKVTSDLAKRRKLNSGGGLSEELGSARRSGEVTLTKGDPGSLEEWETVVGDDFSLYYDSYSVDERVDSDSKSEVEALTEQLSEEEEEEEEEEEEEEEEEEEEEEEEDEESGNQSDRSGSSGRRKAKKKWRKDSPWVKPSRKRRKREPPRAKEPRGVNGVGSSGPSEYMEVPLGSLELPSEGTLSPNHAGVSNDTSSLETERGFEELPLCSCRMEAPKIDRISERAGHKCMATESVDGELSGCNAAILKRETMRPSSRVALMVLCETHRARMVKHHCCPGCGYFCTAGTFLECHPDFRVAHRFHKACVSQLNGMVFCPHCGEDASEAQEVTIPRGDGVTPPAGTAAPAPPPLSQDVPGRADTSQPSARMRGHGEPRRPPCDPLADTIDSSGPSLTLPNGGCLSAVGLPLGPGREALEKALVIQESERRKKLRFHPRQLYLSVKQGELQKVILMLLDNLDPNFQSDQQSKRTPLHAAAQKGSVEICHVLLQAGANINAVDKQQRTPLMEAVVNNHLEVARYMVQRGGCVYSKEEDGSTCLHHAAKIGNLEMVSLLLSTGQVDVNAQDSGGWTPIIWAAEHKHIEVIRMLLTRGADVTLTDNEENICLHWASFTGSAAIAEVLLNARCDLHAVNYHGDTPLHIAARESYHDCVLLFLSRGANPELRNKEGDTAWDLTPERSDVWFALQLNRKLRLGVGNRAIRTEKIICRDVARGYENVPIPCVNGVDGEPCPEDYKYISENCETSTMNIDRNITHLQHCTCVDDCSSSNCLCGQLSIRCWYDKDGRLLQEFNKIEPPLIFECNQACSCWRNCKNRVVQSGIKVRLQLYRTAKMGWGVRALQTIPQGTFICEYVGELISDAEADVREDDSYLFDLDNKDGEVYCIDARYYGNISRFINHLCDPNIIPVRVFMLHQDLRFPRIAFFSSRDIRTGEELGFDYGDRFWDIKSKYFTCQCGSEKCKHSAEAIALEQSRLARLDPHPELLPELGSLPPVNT

[5] = molecular target: Inhibitor of nuclear factor kappa-B kinase subunit alpha (Homo sapiens, UniProt O15111); assay: Selectivity interaction (Kinase panel (Enzyme activity assay)) EUB0000612a CHUK
Chain of Inhibitor of nuclear factor kappa-B kinase subunit alpha (O15111 whole entry): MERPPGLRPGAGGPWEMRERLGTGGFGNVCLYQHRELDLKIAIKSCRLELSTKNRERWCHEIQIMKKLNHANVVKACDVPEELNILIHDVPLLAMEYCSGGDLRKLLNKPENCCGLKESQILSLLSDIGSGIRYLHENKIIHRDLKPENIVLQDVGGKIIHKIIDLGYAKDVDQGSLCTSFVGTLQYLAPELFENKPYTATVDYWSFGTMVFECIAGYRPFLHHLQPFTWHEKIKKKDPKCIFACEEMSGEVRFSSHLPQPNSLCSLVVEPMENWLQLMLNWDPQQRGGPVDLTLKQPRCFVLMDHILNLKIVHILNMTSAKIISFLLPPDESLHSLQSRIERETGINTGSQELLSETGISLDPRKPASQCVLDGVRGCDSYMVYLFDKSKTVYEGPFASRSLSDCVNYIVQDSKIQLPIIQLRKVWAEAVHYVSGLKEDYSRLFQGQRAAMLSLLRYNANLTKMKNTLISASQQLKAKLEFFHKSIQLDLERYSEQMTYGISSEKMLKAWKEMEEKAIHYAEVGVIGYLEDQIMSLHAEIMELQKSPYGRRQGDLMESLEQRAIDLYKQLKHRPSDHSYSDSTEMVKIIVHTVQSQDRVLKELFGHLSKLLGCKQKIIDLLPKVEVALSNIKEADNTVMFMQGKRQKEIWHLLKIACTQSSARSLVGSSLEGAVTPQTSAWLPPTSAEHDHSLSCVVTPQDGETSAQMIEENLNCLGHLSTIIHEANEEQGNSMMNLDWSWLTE

Chain of MAP kinase-activated protein kinase 2 (P49137 whole entry, looked up): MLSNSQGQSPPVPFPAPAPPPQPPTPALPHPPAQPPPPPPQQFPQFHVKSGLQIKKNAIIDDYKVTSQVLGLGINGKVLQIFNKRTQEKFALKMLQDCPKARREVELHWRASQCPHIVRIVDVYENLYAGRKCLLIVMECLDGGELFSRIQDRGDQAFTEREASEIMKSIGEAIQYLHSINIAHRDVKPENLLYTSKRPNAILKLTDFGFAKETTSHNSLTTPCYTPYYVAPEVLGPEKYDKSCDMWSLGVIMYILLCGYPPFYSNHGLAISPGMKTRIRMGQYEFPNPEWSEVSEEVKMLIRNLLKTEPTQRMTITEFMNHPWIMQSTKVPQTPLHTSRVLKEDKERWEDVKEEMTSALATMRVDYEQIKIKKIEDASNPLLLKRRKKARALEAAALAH

In the case of `C=CC(=O)Nc1cccc(C(=O)Nc2ccc(Nc3cc(-c4[nH]c(SC)nc4C)ccn3)cc2)c1`, the % of control ([1]; at 1 µM) is reported as 71% and the % of control ([1]; at 5 µM) is reported as 42%.

`Nc1cnc(N2CCc3cc(S(=O)(=O)Nc4c(F)cc(Cl)cc4F)cc(N4CCCC4=O)c32)nc1` [TP-020n] gave a % of control [2] of 100%.

`Cc1cc([C@@H](C)Nc2ccccc2C(=O)O)c2nc(N3CCOCC3)cc(=O)n2c1` [AZD-6482] gave a % of control [3] of 100%.

With `Cc1cc(CN)cc(C)c1-c1ncn(C)c1-c1cncn1C` the % activity ([4]; at 1 µM) was over 90% and the % activity ([4]; at 10 µM) was over 80%.

Work on `CCc1cccc(CC)c1NC(=O)c1nn(C)c2c1CCc1cnc(Nc3ccc(C(=O)NC4CCN(C)CC4)cc3OC(F)(F)F)nc1-2` yielded an IC50 [5] of over 10 µM.
